The source of these data is patent publication US20210395239A1 (Hoffmann-La Roche Inc., priority 2018, published 2021).

In this assay the target is T1, hTLR9 (Homo sapiens, UniProt Q9NR96).
T1 sequence (Q9NR96 26-1032): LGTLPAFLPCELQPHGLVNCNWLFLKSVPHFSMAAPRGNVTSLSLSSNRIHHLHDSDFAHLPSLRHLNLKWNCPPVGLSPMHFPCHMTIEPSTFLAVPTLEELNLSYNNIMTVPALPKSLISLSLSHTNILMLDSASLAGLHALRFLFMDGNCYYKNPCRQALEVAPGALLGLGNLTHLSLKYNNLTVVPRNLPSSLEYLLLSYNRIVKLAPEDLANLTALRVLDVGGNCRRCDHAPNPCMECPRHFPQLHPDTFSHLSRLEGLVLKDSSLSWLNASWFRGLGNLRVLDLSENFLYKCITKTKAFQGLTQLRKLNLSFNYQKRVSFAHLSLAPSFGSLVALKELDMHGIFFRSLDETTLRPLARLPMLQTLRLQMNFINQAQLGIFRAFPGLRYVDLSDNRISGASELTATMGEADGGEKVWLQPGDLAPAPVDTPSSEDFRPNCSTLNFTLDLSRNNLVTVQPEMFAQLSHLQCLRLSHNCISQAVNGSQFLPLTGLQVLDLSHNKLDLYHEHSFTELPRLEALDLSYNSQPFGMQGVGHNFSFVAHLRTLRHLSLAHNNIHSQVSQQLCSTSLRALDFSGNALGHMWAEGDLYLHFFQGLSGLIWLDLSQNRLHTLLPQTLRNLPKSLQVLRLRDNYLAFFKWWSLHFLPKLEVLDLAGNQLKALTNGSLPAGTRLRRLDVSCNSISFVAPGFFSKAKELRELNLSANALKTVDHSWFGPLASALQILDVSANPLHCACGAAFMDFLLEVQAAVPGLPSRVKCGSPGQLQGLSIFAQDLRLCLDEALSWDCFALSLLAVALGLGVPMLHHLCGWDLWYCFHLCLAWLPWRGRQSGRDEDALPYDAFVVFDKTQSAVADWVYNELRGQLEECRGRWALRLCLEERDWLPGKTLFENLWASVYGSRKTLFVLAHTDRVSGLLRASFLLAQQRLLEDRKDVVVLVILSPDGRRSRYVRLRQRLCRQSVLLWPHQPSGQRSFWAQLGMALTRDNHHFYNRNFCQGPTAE
Nature of the assay: HEK293-Blue-hTLR-9 cells assay (SEAP reporter, ODN2006 stimulation). As to conditions: HEK293-Blue-hTLR9 cells, ODN2006, 20 hrs; read-out: HEK/hTLR9 IC50. It counts as cell-based. Also on record: host or cells: HEK293 (HEK-Blue hTLR9). The method in brief:
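Antagonism read as lowered SEAP reporter absorbance (620–655 nm, QUANTI-Blue, 2 h, 37 °C) in supernatants. Before that, ODN2006-stimulated HEK293-Blue cells stably expressing human TLR9 were exposed to compound dilutions at 1% final DMSO for 20 h at 37 °C.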
Consider `Cc1cc(N2CC(C)(N)C2)cnc1N1CCN(C[C@H]2CN(c3ccc(C#N)n4ncc(F)c34)C[C@@H](C)O2)CC1` [Example 148, 4-[(2S,6R)-2-[[4-[5-(3-amino-3-methyl-azetidin-1-yl)-3-methyl-2-pyridyl]piperazin-1-yl]methyl]-6-methyl-morpholin-4-yl]-3-fluoro-pyrazolo[1,5-a]pyridine-7-carbonitrile], for which the IC50 amounted to 75 nM.
The figure for `[2H]c1ccc2c(N3C[C@H](CN4CC(c5ccc(N6C[C@@H](N)[C@H](OC)C6)nc5)C4)O[C@H](C)C3)ccc(C#N)c2n1` [Example 149, 5-[(2S,6R)-2-[[3-[6-[(3R,4R)-3-amino-4-methoxy-pyrrolidin-1-yl]-3-pyridyl]azetidin-1-yl]methyl]-6-methyl-morpholin-4-yl]-2-deuterio-quinoline-8-carbonitrile] is 68 nM; for `[2H]c1ccc2c(N3C[C@H](CN4CCN(c5ccc(N6C[C@H](N)[C@@H](F)C6)nc5)CC4)O[C@H](C)C3)ccc(C#N)c2n1` [Example 150, 5-[(2S,6R)-2-[[4-[6-[(3S,4S)-3-amino-4-fluoro-pyrrolidin-1-yl]-3-pyridyl]piperazin-1-yl]methyl]-6-methyl-morpholin-4-yl]-2-deuterio-quinoline-8-carbonitrile] it is 175 nM; for `[2H]c1ccc2c(N3C[C@H](CN4CCN(c5ccc(N6C[C@@H]7C[C@H]6CN7)nc5)CC4)O[C@H](C)C3)ccc(C#N)c2n1` [Example 151, 2-deuterio-5-[(2S,6R)-2-[[4-[6-[(1S,4S)-2,5-diazabicyclo[2.2.1]heptan-2-yl]-3-pyridyl]piperazin-1-yl]methyl]-6-methyl-morpholin-4-yl]quinoline-8-carbonitrile] it is 96 nM.
Under `[2H]c1ccc2c(N3C[C@H](CN4CCN(c5ccc(N6C[C@H]7C[C@@H]6CN7)nc5)CC4)O[C@H](C)C3)ccc(C#N)c2n1` [Example 153, 2-deuterio-5-[(2S,6R)-2-[[4-[6-[(1R,4R)-2,5-diazabicyclo[2.2.1]heptan-2-yl]-3-pyridyl]piperazin-1-yl]methyl]-6-methyl-morpholin-4-yl]quinoline-8-carbonitrile] stands 113 nM; under `[2H]c1ccc2c(N3C[C@H](CN4CCN(c5cccc(N6CC(C)(N)C6)n5)CC4)O[C@H](C)C3)ccc(C#N)c2n1` [Example 155, 5-[(2S,6R)-2-[[4-[6-(3-amino-3-methyl-azetidin-1-yl)-2-pyridyl]piperazin-1-yl]methyl]-6-methyl-morpholin-4-yl]-2-deuterio-quinoline-8-carbonitrile], 71 nM; under `[2H]c1ccc2c(N3C[C@H](CN4CC(O)(c5ccc(N6CC(C)(N)C6)cc5)C4)O[C@H](C)C3)ccc(C#N)c2n1` [Example 156, 5-[(2S,6R)-2-[[3-[4-(3-amino-3-methyl-azetidin-1-yl)phenyl]-3-hydroxy-azetidin-1-yl]methyl]-6-methyl-morpholin-4-yl]-2-deuterio-quinoline-8-carbonitrile], 46 nM.
Regarding `C[C@@H]1CN(c2ccc(C#N)n3nccc23)C[C@H](CN2CC(c3ccc(N4CC(C)(N)C4)nc3)C2)O1` [Example 157, 4-[(2S,6R)-2-[[3-[6-(3-amino-3-methyl-azetidin-1-yl)-3-pyridyl]azetidin-1-yl]methyl]-6-methyl-morpholin-4-yl]pyrazolo[1,5-a]pyridine-7-carbonitrile], the IC50 stood at 31 nM.
The figure for `[2H]c1ccc2c(N3C[C@H](CN4CC(c5cccc(N6CC(C)(N)C6)n5)C4)O[C@H](C)C3)ccc(C#N)c2n1` [Example 159, 5-[(2S,6R)-2-[[3-[6-(3-amino-3-methyl-azetidin-1-yl)-2-pyridyl]azetidin-1-yl]methyl]-6-methyl-morpholin-4-yl]-2-deuterio-quinoline-8-carbonitrile] is 100 nM.
